Data reported in US5780675A, “Deoxygossylic compounds” (The University of New Mexico, priority 1995, dated 1998).
“Also recorded” adds a separate entry of the source. Like-named read-outs stand apart in the source and are kept apart here.

Tests used:
HT46c (HeLaT4+) cells = assay: Cytotoxicity: changes in cell morphology or loss of monolayer adherence in HT46c cells; type: cell-based; details: for cytotoxicity (in words): HT46c cells, compared with BDGA and/or GIL where stated; for toxicity (in words): 5.0 μM
[1] = as above; type: cell-based; details: human; for MCC at 72 h: HT46c cells, 3 days, lowest concentration with detectable morphology change or loss of monolayer adherence, read-out: threshold cytotoxicity
human serum albumin [2] = target: T1, human serum albumin (Homo sapiens, UniProt P02768); assay: Binding to human serum albumin, fluorescence quenching titration; details: 25° C., pH 7.4, read-out: Dissociation constant (Kd) for binding to human serum albumin
T1 sequence (P02768 25-609): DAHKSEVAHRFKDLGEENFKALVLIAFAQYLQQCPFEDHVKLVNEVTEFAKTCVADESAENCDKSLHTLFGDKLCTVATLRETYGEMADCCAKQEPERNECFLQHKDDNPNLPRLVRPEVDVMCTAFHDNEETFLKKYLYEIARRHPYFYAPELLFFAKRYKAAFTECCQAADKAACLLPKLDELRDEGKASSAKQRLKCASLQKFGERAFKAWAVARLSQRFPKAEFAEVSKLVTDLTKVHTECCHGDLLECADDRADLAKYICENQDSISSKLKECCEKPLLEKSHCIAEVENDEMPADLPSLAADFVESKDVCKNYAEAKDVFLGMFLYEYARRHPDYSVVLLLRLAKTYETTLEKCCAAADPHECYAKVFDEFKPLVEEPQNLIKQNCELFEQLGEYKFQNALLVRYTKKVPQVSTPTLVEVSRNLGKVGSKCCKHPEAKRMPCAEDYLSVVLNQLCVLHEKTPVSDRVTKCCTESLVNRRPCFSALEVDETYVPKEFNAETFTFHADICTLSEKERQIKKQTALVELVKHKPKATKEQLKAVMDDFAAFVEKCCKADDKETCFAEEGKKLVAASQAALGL
Experimental: Table I below lists the dissociation constants (Kds) for binding of compounds 1-6 to human serum albumin. The Kd for gossypol was determined by multiple methods as reported in FEBS Lett. 157:28-30, 1983. The Kds for compounds 2-6 were determined by fluorescence quenching titrations.
These experiments were carried out at 25° C. in 2 mL volumes of 0.2M potassium phosphate buffer (pH 7.4) containing 0.1M sodium chloride. Aliquots of a 1 mM stock solution of test compound in DMSO were added to a 10 μM solution of human serum albumin in the buffer. Fluorescence was measured with a Perkin Elmer model LS 50 luminescence spectrometer. The Kds were determined by plotting the reciprocal of free ligand concentration versus the reciprocal of fractional quenching. This plot provides -1/Kd as the x-intercept. Details of the calculations employed are set forth in J. Pharm. Sci. 77:237-240 (1988).

[3] = test system: H9/HIV-IIIB strain of the HIV-1 virus; assay: Inhibition of HIV replication, focal immunoassay (foci reduction) in HT46c cells; type: cell-based; details: for anti-HIV activity (in words): in vitro, compared with BDGA and/or GIL where stated; for anti-HIV activity (in words) / EC50: H9/HIV-IIIB in HT46c cells; for reduction in foci (in words): 5 μM, GIL and BDGA compared; for EC50: Human immunodeficiency virus 1, 72 h, 3 days at 37° C.
Experimental: 1,1'-bisdeoxygossypol (BDG), 1,1'-bisdeoxygossylic acid (BDGA), 8-deoxyhemigossypol (DHG) and 8-deoxyhemigossylic acid (DHGA) were synthesized and tested for their ability to inhibit the replication of HIV in vitro. The EC50 for BDGA was <1 μM and its threshold cytotoxicity was approximately 20 μM. […] Like BDGA, the Ec50 for GIL was <1 μM. […] BDG, on the other hand, was ineffective at 1 μM and destroyed >80% of the cell monolayer at 5 μM.
The anti-HIV assay used was based on a published procedure (J. Virol. 62:3779-3788, 1988) using HT46c (HeLaT4+) cells as host cells for the H9/HIV-IIIB strain of the HIV-1 virus. The cells were seeded into 6-well plates, 5×10^4 cells/well, in RPMI 1640 with 10% FBS and allowed to attach overnight. After treatment of the wells with DEAE-dextran, stock virus was added at a concentration that produces 100-200 foci/well on day 3 in positive control wells. Test compounds were added, and plates incubated for 3 days at 37° C., 5% CO2. Monolayers were fixed with methanol and wells analyzed with a focal immunoassay (FIA). The primary reagent used in the FIA was a polyclonal antibody preparation of sera from AIDS patients. The secondary reagent was a goat anti-human IgG antibody tagged with horseradish peroxidase. The substrate was 3-amino-9-ethylcarbazole in sodium acetate buffer with hydrogen peroxide. Each compound was tested at concentrations of 0.01, 0.1, 1.0, 5.0 and 20 μM. GIL was tested as a standard for comparison.

HIV = details: previously found, in vitro, similar assays; cited from earlier work
[4] = previous or background findings; GIL compared with gossypol; cited from earlier work
human serum albumin [5] = target: T1, human serum albumin; details: gossypol, determined by multiple methods as reported in FEBS Lett. 157:28-30, 1983; read-out: Dissociation constant (Kd) for binding to human serum albumin; cited from earlier work

Row | SMILES | Kd (human serum albumin [2]) [µM] | EC50 [3] [µM] | cytotoxicity (in words) (HT46c (HeLaT4+) cells) | anti-HIV activity (in words) [3] | toxicity (in words) (HT46c (HeLaT4+) cells) | MCC at 72 h [1] [µM] | reduction in foci (in words) [3] | cytotoxicity (in words), previous findings [4] | other results
1 | Cc1cc2c(C(C)C)c(O)c(O)c(C=O)c2cc1-c1cc2c(C=O)c(O)c(O)c(C(C)C)c2cc1C [BDG, 6,6',7,7'-Tetrahydroxy-3,3'-dimethyl-5,5'-bis(1-methylethyl) [2,2'-binaphthalene]-8,8'-dicarboxaldehyde] | 1.2 |  | much more cytotoxic than BDGA | less effective against HIV |  |  |  |  | cytotoxicity at 5 µM ([1]; ht46c cells, 5 μM, read-out: cell monolayer destroyed): > 80%; anti-HIV effect (in words) ([3]; 1 μM): ineffective
2 | Cc1cc2c(C(C)C)c(O)c(O)c3c2c(c1-c1c(C)cc2c(C(C)C)c(O)c(O)c4c2c1OC4=N)OC3=N [GIL, reference compound] | 3 | < 1 |  |  | No toxicity was noted |  | same reduction in foci | less cytotoxic than gossypol | anti-HIV activity relative to gossypol (in words) (HIV): more active; also recorded: more effective than gossypol
3 | Cc1cc2c(C(C)C)c(O)c(O)c(C=O)c2c(O)c1-c1c(C)cc2c(C(C)C)c(O)c(O)c(C=O)c2c1O [gossypol] |  |  |  |  |  |  |  | significantly cytotoxic at effective dosage levels | Kd (human serum albumin [5]): 0.09 µM

Now from value to molecule, other results behind:

Row | Kd (human serum albumin [2]) [µM] | EC50 [3] [µM] | SMILES | cytotoxicity (in words) (HT46c (HeLaT4+) cells) | anti-HIV activity (in words) [3] | toxicity (in words) (HT46c (HeLaT4+) cells) | MCC at 72 h [1] [µM] | reduction in foci (in words) [3] | cytotoxicity (in words), previous findings [4] | other results
4 | 1.5 | < 1 | Cc1cc2c(C(C)C)c(O)c(O)c(C(=O)O)c2cc1-c1cc2c(C(=O)O)c(O)c(O)c(C(C)C)c2cc1C [BDGA, 6,6',7,7'-Tetrahydroxy-3,3'-dimethyl-5,5'-bis(1-methylethyl) [2,2'-binaphthalene]-8,8'-dicarboxylic Acid] |  | approximately as effective as GIL | No toxicity was noted | ~20 | same reduction in foci |  | monolayer destruction (in words) (HT46c (HeLaT4+) cells; 20 μM): Some signs of monolayer destruction
5 | 0.66 |  | Cc1ccc2c(C=O)c(O)c(O)c(C(C)C)c2c1 [DHG, 2,3-dihydroxy-6-methyl-4-(1-methylethyl)-1-naphthaldehyde] | more cytotoxic | some anti-HIV activity; also recorded: less active |  | 5 |  |  | 
6 | 5.28 |  | Cc1ccc2c(C(=O)O)c(O)c(O)c(C(C)C)c2c1 [DHGA, 2,3-dihydroxy-6-methyl-4-(1-methylethyl)-1-naphthoic Acid] | very low cytotoxicity | ineffective against HIV |  |  |  |  | effect on cell morphology (in words) (HT46c (HeLaT4+) cells; even at 20 μM): no observable effect on viral replication or cell morphology; effect on viral replication (in words) ([3]; even at 20 μM): no observable effect on viral replication
